Our source for the IC50 values is ChEMBL document CHEMBL3046157, “Synthesis of new N-arylamino(2-furyl)methylphosphonic acid diesters, and in vitro evaluation of their cytotoxicity against esophageal cancer cells” (Med Chem Res, 2013).

Experiment [1] is described as follows: Cytotoxicity against Homo sapiens (human) HET-1A cells assessed as inhibition of cell survival after 24 hr by MTT assay. Type of experiment: cell-based. (Formazan colour is commonly taken as a measure of viable cells.)
The subject of experiment [2] is KYSE-270. The experiment is described as follows: Cytotoxicity against Homo sapiens (human) KYSE-270 cells assessed as inhibition of cell survival after 24 hr by MTT assay. Type of experiment: functional, cell-based. The settings on record: KYSE-270, 24 h.
A short description of experiment [3]: Cytotoxicity against Homo sapiens (human) KYSE-30 cells assessed as inhibition of cell survival after 24 hr by MTT assay. Type of experiment: functional, cell-based. As to conditions: KYSE-30, 24 h.
The nature of experiment [4]: Cytotoxicity against Homo sapiens (human) KYSE-150 cells assessed as inhibition of cell survival after 24 hr by MTT assay. In kind it is functional, cell-based. As to conditions: KYSE-150, 24 h.

Where only a bound is given, the exact number is not on record here.

`Cc1ccc(/N=C\c2ccco2)cc1` [N-FURFURYLIDENE-P-TOLUIDINE]: the IC50 in experiment [1] is > 400 µM; in experiment [2], 398 µM; in experiment [3] it was > 400 µM; in experiment [4], 380 µM.
In the case of `COc1ccccc1/N=C/c1ccco1` [N-FURFURYLIDENE-O-ANISIDINE], the IC50 in experiment [1], in experiment [2], in experiment [3] and in experiment [4] was > 400 µM throughout.
`COc1ccccc1NC(c1ccco1)P(=O)(OC)OC` (centres undefined): the IC50 in experiment [1] is > 400 µM; in experiment [2], 77.4 µM; in experiment [3], 38 µM; in experiment [4], 51.3 µM.
`Cc1ccc(NC(c2ccco2)P(=O)(Oc2ccccc2)Oc2ccccc2)cc1` (centres undefined): the half-inhibitory concentration (IC50) in experiment [1], in experiment [2], in experiment [3] and in experiment [4] was > 400 µM in each case.
Regarding `COc1cccc(NC(c2ccco2)P(=O)(OCc2ccccc2)OCc2ccccc2)c1` (centres undefined), the IC50 in experiment [1] was > 400 µM; in experiment [2], 251 µM; in experiment [3], 251 µM; in experiment [4] it was 200 µM.
For the compound `COc1ccc(NC(c2ccco2)P(=O)(Oc2ccccc2)Oc2ccccc2)cc1` (centres undefined), the IC50 was > 400 µM in experiment [1], 205 µM in experiment [2], > 400 µM in experiment [3] and 209 µM in experiment [4].
With `COc1ccc(/N=C/c2ccco2)cc1` [N-FURFURYLIDENE-P-ANISIDINE], the IC50 in experiment [1], in experiment [2], in experiment [3] and in experiment [4] was > 400 µM in each case.
For `Cc1ccccc1NC(c1ccco1)P(=O)(Oc1ccccc1)Oc1ccccc1` (centres undefined), the IC50 in experiment [1] was > 400 µM; in experiment [2], > 400 µM; in experiment [3] it was 251 µM; in experiment [4] it was > 400 µM.
As to `COc1ccc(NC(c2ccco2)P(=O)(OC)OC)cc1` (centres undefined), the IC50 in experiment [1] was > 400 µM; in experiment [2], 224 µM; in experiment [3] it was 316 µM; in experiment [4], 166 µM.
For the compound `Cc1cccc(NC(c2ccco2)P(=O)(Oc2ccccc2)Oc2ccccc2)c1` (centres undefined), the IC50 is > 400 µM in experiment [1], > 400 µM in experiment [2], 380 µM in experiment [3] and > 400 µM in experiment [4].
Turning to `Cc1cccc(/N=C/c2ccco2)c1` [N-FURFURYLIDENE-M-TOLUIDINE], the IC50 in experiment [1] was > 400 µM; in experiment [2] it was 111 µM; in experiment [3] it was 158 µM; in experiment [4], 50.1 µM.

The IC50 is the concentration that gives 50% inhibition.
